# Data as given in PMC4029803, “Glutathione-Binding Site of a Bombyx mori Theta-Class Glutathione Transferase” (PLoS ONE, 2014).
# Where a chain is given by its changes, count along the chain named. In names and notes the source's numbering stands.
# B1: bmGSTT (Bombyx mori; H40A) (protein)
# chain: MVLKLYYDLMSQPSRVLYILLKTMKYDFEPKYVNLRKAEAYSEDFTKVNRMQRVPVIDHNGFILTESIAILKYLSRENVIAESLYSKESKLQARIEEFLEWQHIGLRLHCAMYFRVVHMDPILTGRKSDEKTIQGYKRRMMMALDDFDTKWLGRGTAFIVGETPTVADLVAACELEQPRMAGFEPKDHFPNIAAWWPKVRDHFAPHYEDAHVILNKIINKMDRAANSKL
# B2: bmGSTT (Bombyx mori) (protein)
# chain: B1 chain with A40H
# B3: bmGSTT (Bombyx mori; V54A) (protein)
# chain: B1 chain with A40H, V54A
# B4: bmGSTT (Bombyx mori; R107A) (protein)
# chain: B1 chain with A40H, R107A
# Columns and labels:
# bmGSTT [1] = biological target: T1, bmGSTT (Bombyx mori, UniProt B0LB14); assay: spectrophotometric GST assay, […] nm; assay type: biochemical; conditions: 5 mM GSH; Table 1 activity at pH 8; read-out: WT
# T1 construct: cDNA from larval fat body; primers encode N-terminal MVLKLYYD and C-terminal AANSKL
# T1 sequence (B0LB14 1-229): B1 chain with A40H
# bmGSTT [2] = biological target: T2, bmGSTT (Bombyx mori, UniProt B0LB14, E66A); assay: spectrophotometric GST assay, […] nm; assay type: biochemical; conditions: 5 mM GSH; read-out: bmGSTT mutants / E66A
# T2 construct: cDNA from larval fat body; primers encode N-terminal MVLKLYYD and C-terminal AANSKL
# T2 sequence (B0LB14 1-229 E66A): B1 chain with A40H, E66A
# bmGSTT [3] = biological target: T3, bmGSTT (Bombyx mori, UniProt B0LB14, R107A); assay: spectrophotometric GST assay, […] nm; assay type: biochemical; conditions: 5 mM GSH; read-out: bmGSTT mutants / R107A
# T3 construct: cDNA from larval fat body; primers encode N-terminal MVLKLYYD and C-terminal AANSKL
# T3 sequence (B0LB14 1-229 R107A): B1 chain with A40H, R107A
# bmGSTT [4] = biological target: T4, bmGSTT (Bombyx mori, UniProt B0LB14, H40A); assay: spectrophotometric GST assay, […] nm; assay type: biochemical; conditions: 5 mM GSH; read-out: bmGSTT mutants / H40A
# T4 construct: cDNA from larval fat body; primers encode N-terminal MVLKLYYD and C-terminal AANSKL
# T4 sequence (B0LB14 1-229 H40A): B1 chain
# purified protein = substrate: O=[N+]([O-])c1ccc(CCBr)cc1; assay: purified protein; conditions: 5 mM GSH
molecule,measurement,setting,value
"O=[N+]([O-])c1ccc(Cl)c([N+](=O)[O-])c1 [CDNB, 1-chloro-2,4-dinitrobenzene]",Km,bmGSTT [1],1500 µM
same,Km,bmGSTT [2],12000 µM
same,Km,bmGSTT [3],960 µM
same,Km,bmGSTT [4],520 µM
B1,Km,purified protein,2.3 (0.22) mM
B2,Km,purified protein; Table 1 activity at pH 8,0.13 (0.03) mM
B3,Km,purified protein,0.50 (0.083) mM
B4,Km,purified protein,0.52 (0.071) mM
